From the NIST ThermoML archive (doi:10.1021/acs.jced.7b00335)
Numbers after ± are expanded uncertainties.

Test: xn = mol fraction of the nth substance listed
Conditions: 100 kPa, Liquid; for viscosity: Concentric cylinders viscometry; for mass density: Vibrating tube method

O=Cc1ccccc1 [benzaldehyde] + CC(C)O
viscosity (293.15 K, x1 = 0.0809): 2.11 ± 0.09 mPa·s | viscosity (293.15 K, x1 = 0.1596): 1.86 ± 0.08 mPa·s | viscosity (293.15 K, x1 = 0.24): 1.675 ± 0.068 mPa·s | viscosity (293.15 K, x1 = 0.3492): 1.499 ± 0.061 mPa·s | viscosity (293.15 K, x1 = 0.4399): 1.42 ± 0.06 mPa·s | viscosity (293.15 K, x1 = 0.5693): 1.402 ± 0.057 mPa·s | viscosity (293.15 K, x1 = 0.6495): 1.414 ± 0.057 mPa·s | viscosity (293.15 K, x1 = 0.7399): 1.434 ± 0.058 mPa·s | viscosity (293.15 K, x1 = 0.8498): 1.47 ± 0.06 mPa·s | viscosity (293.15 K, x1 = 0.9399): 1.502 ± 0.061 mPa·s | viscosity (293.15 K, x1 = 1): 1.52 ± 0.06 mPa·s | mass density (293.15 K, x1 = 0.0809): 809.6 ± 1 kg/m3 | mass density (293.15 K, x1 = 0.1596): 830.7 ± 1 kg/m3 | mass density (293.15 K, x1 = 0.24): 852.5 ± 1 kg/m3 | mass density (293.15 K, x1 = 0.3492): 882.3 ± 1 kg/m3 | mass density (293.15 K, x1 = 0.4399): 906.4 ± 1 kg/m3 | mass density (293.15 K, x1 = 0.5693): 940.8 ± 1 kg/m3 | mass density (293.15 K, x1 = 0.6495): 962.2 ± 1 kg/m3 | mass density (293.15 K, x1 = 0.7399): 986.2 ± 1 kg/m3 | mass density (293.15 K, x1 = 0.8498): 1012.8 ± 1 kg/m3 | mass density (293.15 K, x1 = 0.9399): 1033.3 ± 1 kg/m3 | mass density (293.15 K, x1 = 1): 1046.3 ± 1 kg/m3 | viscosity (298.15 K, x1 = 0.0809): 1.82 ± 0.07 mPa·s | viscosity (298.15 K, x1 = 0.1596): 1.63 ± 0.07 mPa·s | viscosity (298.15 K, x1 = 0.24): 1.47 ± 0.06 mPa·s | viscosity (298.15 K, x1 = 0.3492): 1.342 ± 0.054 mPa·s | viscosity (298.15 K, x1 = 0.4399): 1.296 ± 0.052 mPa·s | viscosity (298.15 K, x1 = 0.5693): 1.284 ± 0.052 mPa·s | viscosity (298.15 K, x1 = 0.6495): 1.298 ± 0.053 mPa·s | viscosity (298.15 K, x1 = 0.7399): 1.318 ± 0.054 mPa·s | viscosity (298.15 K, x1 = 0.8498): 1.354 ± 0.055 mPa·s | viscosity (298.15 K, x1 = 0.9399): 1.385 ± 0.056 mPa·s | viscosity (298.15 K, x1 = 1): 1.41 ± 0.06 mPa·s | mass density (298.15 K, x1 = 0.0809): 804.3 ± 1 kg/m3 | mass density (298.15 K, x1 = 0.1596): 826.4 ± 1 kg/m3 | mass density (298.15 K, x1 = 0.24): 848.2 ± 1 kg/m3 | mass density (298.15 K, x1 = 0.3492): 877.9 ± 1 kg/m3 | mass density (298.15 K, x1 = 0.4399): 901.9 ± 1 kg/m3 | mass density (298.15 K, x1 = 0.5693): 936.2 ± 1 kg/m3 | mass density (298.15 K, x1 = 0.6495): 957.6 ± 1 kg/m3 | mass density (298.15 K, x1 = 0.7399): 981.7 ± 1 kg/m3 | mass density (298.15 K, x1 = 0.8498): 1008 ± 1 kg/m3 | mass density (298.15 K, x1 = 0.9399): 1029 ± 1 kg/m3 | mass density (298.15 K, x1 = 1): 1041.7 ± 1 kg/m3 | viscosity (303.15 K, x1 = 0.0809): 1.59 ± 0.06 mPa·s | viscosity (303.15 K, x1 = 0.1596): 1.43 ± 0.06 mPa·s | viscosity (303.15 K, x1 = 0.24): 1.33 ± 0.05 mPa·s | viscosity (303.15 K, x1 = 0.3492): 1.233 ± 0.05 mPa·s | viscosity (303.15 K, x1 = 0.4399): 1.197 ± 0.049 mPa·s | viscosity (303.15 K, x1 = 0.5693): 1.187 ± 0.048 mPa·s | viscosity (303.15 K, x1 = 0.6495): 1.196 ± 0.049 mPa·s | viscosity (303.15 K, x1 = 0.7399): 1.216 ± 0.049 mPa·s | viscosity (303.15 K, x1 = 0.8498): 1.252 ± 0.051 mPa·s | viscosity (303.15 K, x1 = 0.9399): 1.286 ± 0.052 mPa·s | viscosity (303.15 K, x1 = 1): 1.31 ± 0.05 mPa·s | mass density (303.15 K, x1 = 0.0809): 799.9 ± 1 kg/m3 | mass density (303.15 K, x1 = 0.1596): 821.8 ± 1 kg/m3 | mass density (303.15 K, x1 = 0.24): 843.7 ± 1 kg/m3 | mass density (303.15 K, x1 = 0.3492): 873.4 ± 1 kg/m3 | mass density (303.15 K, x1 = 0.4399): 897.4 ± 1 kg/m3 | mass density (303.15 K, x1 = 0.5693): 931.7 ± 1 kg/m3 | mass density (303.15 K, x1 = 0.6495): 953.1 ± 1 kg/m3 | mass density (303.15 K, x1 = 0.7399): 976.7 ± 1 kg/m3 | mass density (303.15 K, x1 = 0.8498): 1004.1 ± 1 kg/m3 | mass density (303.15 K, x1 = 0.9399): 1024.1 ± 1 kg/m3 | mass density (303.15 K, x1 = 1): 1037.1 ± 1 kg/m3 | viscosity (308.15 K, x1 = 0.0809): 1.41 ± 0.06 mPa·s | viscosity (308.15 K, x1 = 0.1596): 1.29 ± 0.05 mPa·s | viscosity (308.15 K, x1 = 0.24): 1.2 ± 0.05 mPa·s | viscosity (308.15 K, x1 = 0.3492): 1.126 ± 0.046 mPa·s | viscosity (308.15 K, x1 = 0.4399): 1.1 ± 0.04 mPa·s | viscosity (308.15 K, x1 = 0.5693): 1.098 ± 0.045 mPa·s | viscosity (308.15 K, x1 = 0.6495): 1.109 ± 0.045 mPa·s | viscosity (308.15 K, x1 = 0.7399): 1.131 ± 0.046 mPa·s | viscosity (308.15 K, x1 = 0.8498): 1.163 ± 0.047 mPa·s | viscosity (308.15 K, x1 = 0.9399): 1.197 ± 0.049 mPa·s | viscosity (308.15 K, x1 = 1): 1.22 ± 0.05 mPa·s | mass density (308.15 K, x1 = 0.0809): 795.6 ± 1 kg/m3 | mass density (308.15 K, x1 = 0.1596): 817.6 ± 1 kg/m3 | mass density (308.15 K, x1 = 0.24): 839.2 ± 1 kg/m3 | mass density (308.15 K, x1 = 0.3492): 868.8 ± 1 kg/m3 | mass density (308.15 K, x1 = 0.4399): 892.9 ± 1 kg/m3 | mass density (308.15 K, x1 = 0.5693): 927.2 ± 1 kg/m3 | mass density (308.15 K, x1 = 0.6495): 948.6 ± 1 kg/m3 | mass density (308.15 K, x1 = 0.7399): 972.6 ± 1 kg/m3 | mass density (308.15 K, x1 = 0.8498): 999.3 ± 1 kg/m3 | mass density (308.15 K, x1 = 0.9399): 1019.7 ± 1 kg/m3 | mass density (308.15 K, x1 = 1): 1032.4 ± 1 kg/m3 | viscosity (313.15 K, x1 = 0.0809): 1.23 ± 0.05 mPa·s | viscosity (313.15 K, x1 = 0.1596): 1.14 ± 0.05 mPa·s | viscosity (313.15 K, x1 = 0.24): 1.08 ± 0.04 mPa·s | viscosity (313.15 K, x1 = 0.3492): 1.03 ± 0.04 mPa·s | viscosity (313.15 K, x1 = 0.4399): 1.011 ± 0.041 mPa·s | viscosity (313.15 K, x1 = 0.5693): 1.018 ± 0.041 mPa·s | viscosity (313.15 K, x1 = 0.6495): 1.032 ± 0.042 mPa·s | viscosity (313.15 K, x1 = 0.7399): 1.051 ± 0.043 mPa·s | viscosity (313.15 K, x1 = 0.8498): 1.093 ± 0.044 mPa·s | viscosity (313.15 K, x1 = 0.9399): 1.124 ± 0.046 mPa·s | viscosity (313.15 K, x1 = 1): 1.15 ± 0.05 mPa·s | mass density (313.15 K, x1 = 0.0809): 791 ± 1 kg/m3 | mass density (313.15 K, x1 = 0.1596): 813 ± 1 kg/m3 | mass density (313.15 K, x1 = 0.24): 834.8 ± 1 kg/m3 | mass density (313.15 K, x1 = 0.3492): 864.4 ± 1 kg/m3 | mass density (313.15 K, x1 = 0.4399): 888.3 ± 1 kg/m3 | mass density (313.15 K, x1 = 0.5693): 922.6 ± 1 kg/m3 | mass density (313.15 K, x1 = 0.6495): 944 ± 1 kg/m3 | mass density (313.15 K, x1 = 0.7399): 967 ± 1 kg/m3 | mass density (313.15 K, x1 = 0.8498): 994.1 ± 1 kg/m3 | mass density (313.15 K, x1 = 0.9399): 1014.6 ± 1 kg/m3 | mass density (313.15 K, x1 = 1): 1027.9 ± 1 kg/m3 | viscosity (318.15 K, x1 = 0.0809): 1.08 ± 0.04 mPa·s | viscosity (318.15 K, x1 = 0.1596): 1 ± 0.04 mPa·s | viscosity (318.15 K, x1 = 0.24): 0.95 ± 0.04 mPa·s | viscosity (318.15 K, x1 = 0.3492): 0.918 ± 0.037 mPa·s | viscosity (318.15 K, x1 = 0.4399): 0.909 ± 0.037 mPa·s | viscosity (318.15 K, x1 = 0.5693): 0.916 ± 0.037 mPa·s | viscosity (318.15 K, x1 = 0.6495): 0.933 ± 0.038 mPa·s | viscosity (318.15 K, x1 = 0.7399): 0.967 ± 0.039 mPa·s | viscosity (318.15 K, x1 = 0.8498): 1.015 ± 0.041 mPa·s | viscosity (318.15 K, x1 = 0.9399): 1.058 ± 0.043 mPa·s | viscosity (318.15 K, x1 = 1): 1.09 ± 0.04 mPa·s | mass density (318.15 K, x1 = 0.0809): 786.7 ± 1 kg/m3 | mass density (318.15 K, x1 = 0.1596): 808.6 ± 1 kg/m3 | mass density (318.15 K, x1 = 0.24): 830.3 ± 1 kg/m3 | mass density (318.15 K, x1 = 0.3492): 859.8 ± 1 kg/m3 | mass density (318.15 K, x1 = 0.4399): 883.7 ± 1 kg/m3 | mass density (318.15 K, x1 = 0.5693): 918 ± 1 kg/m3 | mass density (318.15 K, x1 = 0.6495): 939.4 ± 1 kg/m3 | mass density (318.15 K, x1 = 0.7399): 963.2 ± 1 kg/m3 | mass density (318.15 K, x1 = 0.8498): 989.7 ± 1 kg/m3 | mass density (318.15 K, x1 = 0.9399): 1010.8 ± 1 kg/m3 | mass density (318.15 K, x1 = 1): 1023.4 ± 1 kg/m3 | viscosity (323.15 K, x1 = 0.0809): 0.97 ± 0.04 mPa·s | viscosity (323.15 K, x1 = 0.1596): 0.913 ± 0.037 mPa·s | viscosity (323.15 K, x1 = 0.24): 0.873 ± 0.036 mPa·s | viscosity (323.15 K, x1 = 0.3492): 0.848 ± 0.035 mPa·s | viscosity (323.15 K, x1 = 0.4399): 0.84 ± 0.03 mPa·s | viscosity (323.15 K, x1 = 0.5693): 0.844 ± 0.034 mPa·s | viscosity (323.15 K, x1 = 0.6495): 0.863 ± 0.035 mPa·s | viscosity (323.15 K, x1 = 0.7399): 0.892 ± 0.036 mPa·s | viscosity (323.15 K, x1 = 0.8498): 0.943 ± 0.038 mPa·s | viscosity (323.15 K, x1 = 0.9399): 0.991 ± 0.04 mPa·s | viscosity (323.15 K, x1 = 1): 1.03 ± 0.04 mPa·s | mass density (323.15 K, x1 = 0.0809): 782 ± 1 kg/m3 | mass density (323.15 K, x1 = 0.1596): 803.7 ± 1 kg/m3 | mass density (323.15 K, x1 = 0.24): 825.6 ± 1 kg/m3 | mass density (323.15 K, x1 = 0.3492): 855.1 ± 1 kg/m3 | mass density (323.15 K, x1 = 0.4399): 879.1 ± 1 kg/m3 | mass density (323.15 K, x1 = 0.5693): 913.4 ± 1 kg/m3 | mass density (323.15 K, x1 = 0.6495): 934.9 ± 1 kg/m3 | mass density (323.15 K, x1 = 0.7399): 958.9 ± 1 kg/m3 | mass density (323.15 K, x1 = 0.8498): 985 ± 1 kg/m3 | mass density (323.15 K, x1 = 0.9399): 1006 ± 1 kg/m3 | mass density (323.15 K, x1 = 1): 1019.1 ± 1 kg/m3
